Data set [1] has as its target conversion of hamster PrP-sen to PrP-res (Mesocricetus auratus, UniProt P04273). It is filed as biochemical. The following applies: 10 μg/ml tetrapyrrole; for conversion, % of control: mean SD.
The test system of data set [2] is PrP-res formation in scrapie infected neuroblastoma (ScNB) cells. It is filed as cell-based, mouse. Conditions: for % control PrP-res (at 10 μg TSP/ml): 10 μg/ml (~10 μM) meso-porphyrin, relative to untreated ScNB cells; for IC50: ScNB cells.
The conditions of data set [3]: mouse, in vivo, ip.
For data set [4] the following is noted: have been reported; cited from earlier work.
Where [5] appears, read: footnote b values are half-way between 10-fold dilutions (~±50%), read-out: IC50 (μM), PrP-res formation, meso-porphyrins.

Like-named read-outs stand apart in the source and are kept apart here. Marks after values point to notes of the source that are not given here.

Chain of conversion of hamster PrP-sen to PrP-res (P04273 23-230 limits assumed): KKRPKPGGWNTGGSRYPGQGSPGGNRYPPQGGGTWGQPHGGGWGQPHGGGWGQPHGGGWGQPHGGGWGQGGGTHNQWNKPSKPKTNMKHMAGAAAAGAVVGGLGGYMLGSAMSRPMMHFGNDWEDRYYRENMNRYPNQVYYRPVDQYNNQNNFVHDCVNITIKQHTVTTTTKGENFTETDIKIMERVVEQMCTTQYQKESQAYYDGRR

As a reminder, the IC50 is the concentration at which inhibition is half-maximal. With `C[n+]1ccccc1-c1c2nc(c(-c3cccc[n+]3C)c3ccc([nH]3)c(-c3cccc[n+]3C)c3nc(c(-c4cccc[n+]4C)c4ccc1[nH]4)C=C3)C=C2` [T(N-Me-2-Py)P], the “inhibition of cell-free conversion, in words” value in data set [1] is reported as “not significantly inhibitory”. In data set [2], the “% control PrP-res (at 10 μg TSP/ml)” value was 4 ± 3%. Besides, the IC50 in data set [2] (setting [5]) was roughly 5 µM.

With `C[n+]1ccc(-c2c3nc(c(-c4cc[n+](C)cc4)c4ccc([nH]4)c(-c4cc[n+](C)cc4)c4nc(c(-c5cc[n+](C)cc5)c5ccc2[nH]5)C=C4)C=C3)cc1` [T(N-Me-4-Py)P], the “conversion, % of control” value in data set [1] is recorded as 66±18%. Moreover, the “% control PrP-res (at 10 μg TSP/ml)” value in data set [2] turned out to be 50 ± 0%.

As to Phthalocyanine tetrasulfonate [PcTS], the “conversion, % of control” value in data set [1] came to 0±0%. Further, the “% control PrP-res (at 10 μg Pc/ml)” value in data set [2] (10 μg Pc/ml (about 10 μM) in medium, 3-4 days, band intensity relative to untreated ScNB cells, mean ± SD) is recorded as less than 3%. In data set [2] (concentration giving 50% inhibition of PrP-res formation relative to control, footnote a values are half-way between 10-fold dilutions (±50%), read-out: IC50 (μM), PrP-res formation, phthalocyanines), the IC50 worked out at 0.5 µM. Also, in data set [3], the “time detectable in the spleen after treatment had stopped” value is recorded as “at least 8 months”.

With `O=C(O)c1ccc(-c2c3nc(c(-c4ccc(C(=O)O)cc4)c4ccc([nH]4)c(-c4ccc(C(=O)O)cc4)c4nc(c(-c5ccc(C(=O)O)cc5)c5ccc2[nH]5)C=C4)C=C3)cc1` [T(Ph-4-COOH)P], the “% control PrP-res (at 10 μg TSP/ml)” value in data set [2] came to 50 ± 0%.

With `O=S(=O)(O)c1ccc(-c2c3nc(c(-c4ccc(S(=O)(=O)O)cc4)c4ccc([nH]4)c(-c4ccc(S(=O)(=O)O)cc4)c4nc(c(-c5ccc(S(=O)(=O)O)cc5)c5ccc2[nH]5)C=C4)C=C3)cc1` [T(Ph-4-SO^−3)P], the tolerability result in data set [4] is given as “well tolerated”. For the same molecule, in data set [2], the “% control PrP-res (at 10 μg TSP/ml)” value turned out to be 44 ± 31%. Moreover, in data set [2] (setting [5]), the IC50 was roughly 5 µM.

Take `C1=Cc2nc1c(-c1ccncc1)c1ccc([nH]1)c(-c1ccncc1)c1nc(c(-c3ccncc3)c3ccc([nH]3)c2-c2ccncc2)C=C1` [T(4-Py)P]: in data set [2], the “% control PrP-res (at 10 μg TSP/ml)” value was 12 ± 0^a %.

In the case of `C[N+](C)(C)c1ccc(-c2c3nc(c(-c4ccc([N+](C)(C)C)cc4)c4ccc([nH]4)c(-c4ccc([N+](C)(C)C)cc4)c4nc(c(-c5ccc([N+](C)(C)C)cc5)c5ccc2[nH]5)C=C4)C=C3)cc1` [T(Ph-4-NMe^+3)P], the “inhibition of cell-free conversion, in words” value in data set [1] was “not significantly inhibitory”. Moreover, the IC50 in data set [2] (setting [5]) was 5 ± 0.8 µM.

For the molecule `C[n+]1cccc(-c2c3nc(c(-c4ccc[n+](C)c4)c4ccc([nH]4)c(-c4ccc[n+](C)c4)c4nc(c(-c5ccc[n+](C)c5)c5ccc2[nH]5)C=C4)C=C3)c1` [T(N-Me-3-Py)P], the “% control PrP-res (at 10 μg TSP/ml)” value in data set [2] is 50 ± 0^a %.

Source of the values: US6632808B1 (priority 1998, dated 2003).
